Assay results as given in US20040086901A1, “Database for analyzing gene function and method of analyzing gene function by dspa” (priority 2000, published 2004).
Non-standard residues stand in square brackets, D forms with d. Residues, ends and D or L forms follow the SMILES beside them. Nle = CCCC[C@H](N)C(=O)O

Assays:
Assay type in all cases: cell-based, mouse
[1] = tested on: NIH3T3 cells overexpressing Ki-ras; experiment: MTT cell viability, Ki-ras overexpressing cells vs parental line; details: Ki-ras high-expressing cells / parental cell line, 3 to 4 days
Protocol: (§1) With regard to the function-known genes, the genes shown in the left column of Table 2 were used. With regard to the drugs, those shown in Table 1 were dissolved in DMSO to an extent of 100-fold of the maximum concentration for the search of the drugs and used. With regard to the cells, incubated NIH3T3 or ras-NIH3T3 cells were used.
(§2) Full-length cDNA of each function-known genes was incorporated into an expression vector (pRc-CMV, etc.) and transfected into NIH3T3 cells by a common method. Transformed cells were isolated using the resistance to G-418 as an index and the expression of the transfected gene in each cell was investigated by Western blotting method to select a highly expressing line.
(§3) Cell viabilities were measured according to the following procedures.
(§4) 1) From the 2nd to the 11th rows of a 96-well plate were filled with DMEM (50 μl). The 12th row was filled with 100 μl of DMEM.
(§5) 2) The 1st row was filled with 98 μl of DMEM.
(§6) 3) Drugs (2 μl each) were added into the 1st row.
(§7) 4) Continuous double-dilution was conducted from the 1st to the 9th rows. Fifty μl were taken out from the 9th row and discarded. The plate was preserved in a CO2 incubator.
(§8) 5) Cells (each high-expressing cells and the parental cell line) were detached from the medium using a trypsin solution, suspended in 10% CS-DMEM and transferred to a test tube and cell numbers (cell/ml) were counted.
(§9) 6) The cells were diluted to a concentration of 1×10^5 cells/ml, and 50 μl of the cell suspension were added to the 1st to the 11th rows of the plate followed by gently stirring.
(§10) 7) The plate was transferred to the CO2 incubator and incubated for 3 to 4 days.
(§11) 8) MTT (5 mg/ml in PBS) (10 μl) was added to the 1st to the 12th rows of the plate and incubated in the CO2 incubator at 37° C. for 4 hours.
(§12) 9) A reaction stop solution (0.04N HCl in isopropanol) (150 μl) was added followed by mixing well and being allowed to stand at room temperature for about 2 hours.
(§13) 10) Coloration of formazan which was a metabolite of the MTT dye was measured using a microplate reader. The measurement wavelength was 574 nm and the reference wavelength was 655 nm. The 10th and the 11th rows of the plate were 100% controls and the 12th row was a 0% control.
(§14) As an index for the sensitivity of highly gene-expressing cells and the parental cell line to various drugs, each of the IC40 values thereof was specified and ratios of the IC40 values were calculated. FIG. 2 and FIG. 3 are the examples where ratios of IC40 values were calculated from a curve showing the dependency on the concentration of the chemical versus the viability. After that, logarithmic values of ratios of IC40 values were calculated from each gene.

[2] = tested on: NIH3T3 cells overexpressing N-ras; experiment: MTT cell viability, N-ras overexpressing cells vs parental line; details: N-ras high-expressing cells / parental cell line, 3 to 4 days
Protocol: as §1, §2, §3, §4, §5, §6, §7, §8, §9, §10, §11, §12, §13, §14

[3] = tested on: NIH3T3 cells overexpressing erbB2; experiment: MTT cell viability, erbB2 overexpressing cells vs parental line; details: erbB2 high-expressing cells / parental cell line, 3 to 4 days
Protocol: as §1, §2, §3, §4, §5, §6, §7, §8, §9, §10, §11, §12, §13, §14

[4] = tested on: NIH3T3 cells overexpressing p53(wt); experiment: MTT cell viability, p53(wt) overexpressing cells vs parental line; details: p53(wt) high-expressing cells / parental cell line, 3 to 4 days
Protocol: as §1, §2, §3, §4, §5, §6, §7, §8, §9, §10, §11, §12, §13
(§15) As an index for the sensitivity of highly gene-expressing cells and the parental cell line to various drugs, each of the IC40 values thereof was specified and ratios of the IC40 values were calculated. […] After that, logarithmic values of ratios of IC40 values were calculated from each gene.

[5] = tested on: NIH3T3 cells overexpressing m-calpain; experiment: MTT cell viability, m-calpain overexpressing cells vs parental line; details: m-calpain high-expressing cells / parental cell line, 3 to 4 days
Protocol: as §1, §2, §3, §4, §5, §6, §7, §8, §9, §10, §11, §12, §13, §15

[6] = tested on: NIH3T3 cells overexpressing cAMP-PK-CS; experiment: MTT cell viability, cAMP-PK-CS overexpressing cells vs parental line; details: cAMP-PK-CS high-expressing cells / parental cell line, 3 to 4 days
Protocol: as §1, §2, §3, §4, §5, §6, §7, §8, §9, §10, §11, §12, §13, §15

[7] = tested on: NIH3T3 cells overexpressing calpastatin; experiment: MTT cell viability, calpastatin overexpressing cells vs parental line; details: calpastatin high-expressing cells / parental cell line, 3 to 4 days
Protocol: as §1, §2, §3, §4, §5, §6, §7, §8, §9, §10, §11, §12, §13, §14

[8] = tested on: NIH3T3 cells overexpressing CP-antisense; experiment: MTT cell viability, CP-antisense cells vs parental line; details: 3 to 4 days
Protocol: as §1, §2, §3, §4, §5, §6, §7, §8, §9, §10, §11, §12, §13, §14

[9] = tested on: NIH3T3 cells overexpressing cystatin alpha; experiment: MTT cell viability, cystatin alpha overexpressing cells vs parental line; details: cystatin alpha high-expressing cells / parental cell line, 3 to 4 days
Protocol: as §1, §2, §3, §4, §5, §6, §7, §8, §9, §10, §11, §12, §13, §14

[10] = tested on: NIH3T3 cells overexpressing caspase-1; experiment: MTT cell viability, caspase-1 overexpressing cells vs parental line; details: caspase-1 high-expressing cells / parental cell line, 3 to 4 days
Protocol: as §1, §2, §3, §4, §5, §6, §7, §8, §9, §10, §11, §12, §13, §15

[11] = tested on: NIH3T3 cells overexpressing caspase-2; experiment: MTT cell viability, caspase-2 overexpressing cells vs parental line; details: caspase-2 high-expressing cells / parental cell line, 3 to 4 days
Protocol: as §1, §2, §3, §4, §5, §6, §7, §8, §9, §10, §11, §12, §13, §14

[12] = tested on: NIH3T3 cells overexpressing PDGF-R; experiment: MTT cell viability, PDGF-R overexpressing cells vs parental line; details: PDGF-R high-expressing cells / parental cell line, 3 to 4 days
Protocol: as §1, §2, §3, §4, §5, §6, §7, §8, §9, §10, §11, §12, §13, §14

[13] = tested on: NIH3T3 cells overexpressing Gluco-corticoid-R; experiment: MTT cell viability, Gluco-corticoid-R overexpressing cells vs parental line; details: Gluco-corticoid-R high-expressing cells / parental cell line, 3 to 4 days
Protocol: as §1, §2, §3, §4, §5, §6, §7, §8, §9, §10, §11, §12, §13, §15

[14] = tested on: NIH3T3 cells overexpressing STAT1; experiment: MTT cell viability, STAT1 overexpressing cells vs parental line; details: STAT1 high-expressing cells / parental cell line, 3 to 4 days
Protocol: as §1, §2, §3, §4, §5, §6, §7, §8, §9, §10, §11, §12, §13, §15

[15] = tested on: NIH3T3 cells overexpressing CBP8; experiment: MTT cell viability, CBP8 overexpressing cells vs parental line; details: CBP8 high-expressing cells / parental cell line, 3 to 4 days
Protocol: as §1, §2, §3, §4, §5, §6, §7, §8, §9, §10, §11, §12, §13, §14

[16] = tested on: NIH3T3 cells overexpressing JNK-DN; experiment: MTT cell viability, JNK-DN overexpressing cells vs parental line; details: JNK-DN high-expressing cells / parental cell line, 3 to 4 days
Protocol: as §1, §2, §3, §4, §5, §6, §7, §8, §9, §10, §11, §12, §13, §14

[17] = tested on: NIH3T3 cells overexpressing HNF3b; experiment: MTT cell viability, HNF3b overexpressing cells vs parental line; details: HNF3b high-expressing cells / parental cell line, 3 to 4 days
Protocol: as §1, §2, §3, §4, §5, §6, §7, §8, §9, §10, §11, §12, §13, §15

[18] = tested on: NIH3T3 cells overexpressing coup; experiment: MTT cell viability, coup overexpressing cells vs parental line; details: coup high-expressing cells / parental cell line, 3 to 4 days
Protocol: as §1, §2, §3, §4, §5, §6, §7, §8, §9, §10, §11, §12, §13, §14

[19] = tested on: NIH3T3 cells overexpressing p33/ING1; experiment: MTT cell viability, p33/ING1 overexpressing cells vs parental line; details: p33/ING1 high-expressing cells / parental cell line, 3 to 4 days
Protocol: as §1, §2, §3, §4, §5, §6, §7, §8, §9, §10, §11, §12, §13, §14

[20] = tested on: NIH3T3 cells overexpressing T.Tn; experiment: MTT cell viability, T.Tn overexpressing cells vs parental line; details: T.Tn high-expressing cells / parental cell line, 3 to 4 days
Protocol: as §1, §2, §3, §4, §5, §6, §7, §8, §9, §10, §11, §12, §13, §15

SMILES | logarithmic value of ratio of IC40 values [1] | logarithmic value of ratio of IC40 values [2] | logarithmic value of ratio of IC40 values [3] | logarithmic value of ratio of IC40 values [4] | logarithmic value of ratio of IC40 values [5] | logarithmic value of ratio of IC40 values [6] | logarithmic value of ratio of IC40 values [7] | logarithmic value of ratio of IC40 values [8] | logarithmic value of ratio of IC40 values [9] | logarithmic value of ratio of IC40 values [10] | logarithmic value of ratio of IC40 values [11] | logarithmic value of ratio of IC40 values [12] | logarithmic value of ratio of IC40 values [13] | logarithmic value of ratio of IC40 values [14] | logarithmic value of ratio of IC40 values [15] | logarithmic value of ratio of IC40 values [16] | logarithmic value of ratio of IC40 values [17] | logarithmic value of ratio of IC40 values [18] | logarithmic value of ratio of IC40 values [19] | logarithmic value of ratio of IC40 values [20]
COC(=O)[C@@]1(O)C[C@H]2O[C@]1(C)n1c3ccccc3c3c4c(c5c6ccccc6n2c5c31)C(=O)NC4 [K252a] | 0.15 | −0.16 | 0.15 | 0.05 | 0.13 | −0.04 | 0.1 | 0.00 | −0.10 | 0.04 | 0.37 | 0.10 | 0.13 | 0.15 | 0.28 | −0.28 | −0.21 | 0.00 | 0.28 | 0.00
CC(=O)OCOC(=O)CN(CC(=O)OCOC(C)=O)c1ccccc1OCCOc1ccccc1N(CC(=O)OCOC(C)=O)CC(=O)OCOC(C)=O [BAPTA-AM] | −0.15 | 0.00 | −0.40 | 0.00 | 0.00 | −0.10 | 0 | 0.06 | 0.34 | 0.60 | 0.23 | 0.29 | 0.10 | 0.10 | 0.00 | 0.06 | −0.07 | 0.09 | 0.00 | 0.11
CCCC[C@@H](C=O)NC(=O)[C@H](CC(C)C)NC(=O)[C@H](CC(C)C)NC(C)=O [ALLN] (Ac-Leu-Leu-[Nle]-aldehyde) | 0.11 | 0.17 | −0.05 | 0.18 | 0.00 | 0.20 | 0.10 | 0.00 | 0.07 | −0.04 | −0.04 | 0.22 | 0.12 | 0.17 | 0.11 | −0.24 | 0.28 | 0.06 | 0.08 | 0.48
COC[C@H]1OC(=O)c2coc3c2[C@@]1(C)C1=C(C3=O)[C@@H]2CCC(=O)[C@@]2(C)C[C@H]1OC(C)=O [Wortmannin, wortmannin] | 0.34 | 0.14 | 0.16 | 0.40 | 0.18 | −0.07 | −0.14 | −0.12 | 0.45 | 0.20 | 0.52 | 0.00 | 0.09 | 0.00 | 0.14 | −0.09 | 0.24 | 0.10 | 0.00 | 0.36
C=CC1=C(C)c2cc3[n-]c(cc4nc(cc5[n-]c(cc1n2)c(C)c5CCC(=O)O)C(CCC(=O)O)=C4C)c(C)c3C=C.[Cl-].[Cl-].[Sn+4] [SnPP] | 0.18 | 0.14 | −0.25 | −0.18 | −0.07 | 0.02 | 0.486 | 0.10 | 0.00 | −0.15 | −0.33 | −0.07 | 0.00 | 0.08 | 0.56 | −0.11 | 0.24 | 0.51 | −0.23 | 0.00
